Earlier results, collected in patent US6762172B1, “Water-stabilized organosilane compounds and methods for using the same” (Nova Biogenetics, Inc., priority 1997, dated 2004).

Details: mixture with water, non-stabilized

Question: Which “begins to lose effectiveness” value does the source give for `CCCCCCCCCCCCCCCCCC[N+](C)(C)CCC[Si](OC)(OC)OC.[Cl-]` [3-(trimethoxysilyl)propyl-dimethyloctadecyl ammonium chloride] here?
Answer: The value was “four to eight”.
